Measured values taken from US20230212122A1, “MITOCHONDRIAL TARGETING COMPOUNDS FOR THE TREATMENT OF ASSOCIATED DISEASES” (The Regents of the University of Michigan, priority 2020, published 2023).

Key:
MIA PaCa-2 cells = assay: MTT assay, cancer cell growth inhibition (MIA PaCa-2); format: cell-based; conditions: Homo sapiens, MIA PaCa-2, 168 h, 7 days of treatment, read-out: MiaPaCa IC50
Experimental: Measurement of cancer cell growth inhibition of the compounds of invention Cytotoxicity of the compounds was assessed by MTT assay. In brief, MIA PaCa-2 cells or BxPc3 cells were seeded in 96-well microtitre plates at density of 200 cells/well. After overnight attachment, cells were treated with compounds at indicated concentration. After 7 days of treatment, MTT solution (3 mg/ml, 20 μl) was added to each well and cells were incubated for 3 h at 37° C. After incubation, media from each well was removed and the dark blue formazan crystals formed by live cells were dissolved in DMSO ([…] per well). The absorbance intensity was measured at 570 nm on a microplate reader (Molecular Devices, Sunnyvale, Calif., USA). The half maximal inhibitory concentration (IC50) value were calculated using 4 or 6 dots curve plotted with Cumulative Gaussian equation or Log(inhibitor) vs. response equation in GraphPad Prism.

UM16 cell line = assay: GSEA of proteomics data ([…], KEGG pathways); format: cell-based; conditions: for ES / NES: 5 μM, 24 hours
From the text: Several proteins participating in energy metabolism were dramatically changed.

[1] = HALLMARK_ADIPOGENESIS, FDR q-val 0.644
[2] = HALLMARK_ALLOGRAFT_REJECTION, FDR q-val 0.521
[3] = HALLMARK_ANDROGEN_RESPONSE, FDR q-val 0.915
[4] = HALLMARK_APOPTOSIS, FDR q-val 0.666
[5] = HALLMARK_BILE_ACID_METABOLISM, FDR q-val 0.245
[6] = HALLMARK_CHOLESTEROL_HOMEOSTASIS, FDR q-val 0.314
[7] = HALLMARK_COAGULATION, FDR q-val 0.004
[8] = HALLMARK_COMPLEMENT, FDR q-val 0.425
[9] = HALLMARK_DNA_REPAIR, FDR q-val 0.454
[10] = HALLMARK_E2F_TARGETS, FDR q-val 0.077
[11] = HALLMARK_EPITHELIAL_MESENCHYMAL_TRANSITION, FDR q-val 0.456
[12] = HALLMARK_G2M_CHECKPOINT, FDR q-val 0.107
[13] = HALLMARK_GLYCOLYSIS, FDR q-val 0.489
[14] = HALLMARK_HEME_METABOLISM, FDR q-val 0.552
[15] = HALLMARK_HYPOXIA, FDR q-val 0.003
[16] = HALLMARK_IL2_STAT5_SIGNALING, FDR q-val 0.552
[17] = HALLMARK_MITOTIC_SPINDLE, FDR q-val 0.529
[18] = HALLMARK_MYC_TARGETS_V1, FDR q-val 0.006
[19] = HALLMARK_MYC_TARGETS_V2, FDR q-val 0.264
[20] = HALLMARK_MYOGENESIS, FDR q-val 0.467
[21] = HALLMARK_OXIDATIVE_PHOSPHORYLATION, FDR q-val 0.711
[22] = HALLMARK_P53_PATHWAY, FDR q-val 0.146
[23] = HALLMARK_PEROXISOME, FDR q-val 0.645
[24] = HALLMARK_PROTEIN_SECRETION, FDR q-val 0.862
[25] = HALLMARK_SPERMATOGENESIS, FDR q-val 0.851
[26] = HALLMARK_TGF_BETA_SIGNALING, FDR q-val 0.771
[27] = HALLMARK_TNFA_SIGNALING_VIA_NFKB, FDR q-val 0.457
[28] = HALLMARK_UNFOLDED_PROTEIN_RESPONSE, FDR q-val 0.070
[29] = HALLMARK_UV_RESPONSE_DN, FDR q-val 0.510
[30] = HALLMARK_XENOBIOTIC_METABOLISM, FDR q-val 0.488
[31] = KEGG_ADIPOCYTOKINE_SIGNALING_PATHWAY, FDR q-val 0.903
[32] = KEGG_ARGININE_AND_PROLINE_METABOLISM, FDR q-val 0.668
[33] = KEGG_B_CELL_RECEPTOR_SIGNALING_PATHWAY, FDR q-val 0.813
[34] = KEGG_CARDIAC_MUSCLE_CONTRACTION, FDR q-val 0.900
[35] = KEGG_CYTOSOLIC_DNA_SENSING_PATHWAY, FDR q-val 0.907
[36] = KEGG_FC_EPSILON_RI_SIGNALING_PATHWAY, FDR q-val 0.825
[37] = KEGG_GAP_JUNCTION, FDR q-val 0.898
[38] = KEGG_GLYCEROLIPID_METABOLISM, FDR q-val 0.663
[39] = KEGG_GLYCOLYSIS_GLUCONEOGENESIS, FDR q-val 0.889
[40] = KEGG_INOSITOL_PHOSPHATE_METABOLISM, FDR q-val 0.852
[41] = KEGG_INSULIN_SIGNALING_PATHWAY, FDR q-val 0.872
[42] = KEGG_LYSINE_DEGRADATION, FDR q-val 0.914
[43] = KEGG_MELANOGENESIS, FDR q-val 0.638
[44] = KEGG_NON_SMALL_CELL_LUNG_CANCER, FDR q-val 0.894
[45] = KEGG_NUCLEOTIDE_EXCISION_REPAIR, FDR q-val 0.829
[46] = KEGG_PATHWAYS_IN_CANCER, FDR q-val 0.858
[47] = KEGG_PEROXISOME, FDR q-val 0.839
[48] = KEGG_PROP_ANOATE_METABOLISM, FDR q-val 0.889
[49] = KEGG_PURINE_METABOLISM, FDR q-val 0.909
[50] = KEGG_VIRAL_MYOCARDITIS, FDR q-val 0.832

CCOC(=O)[C@@H]1CCCN(S(=O)(=O)c2ccc(S(=O)(=O)N(CC)CC)cc2)C1 [DX2-201, ethyl (R)-1-((4-(N,N-diethylsulfamoyl)phenyl)sulfonyl)piperidine-3-carboxylate]
IC50 (MIA PaCa-2 cells): 370 ± 60 nM
TCA cycle (proteomic results) (UM16 cell line): suppressed
hypoxia pathways, bile acid metabolism, cholesterol homoeostasis and glycolysis (proteomic results) (UM16 cell line): upregulated
ES (UM16 cell line; [1]): 0.317
NES (UM16 cell line; [1]): 1.025
ES (UM16 cell line; [2]): −0.287
NES (UM16 cell line; [2]): −1.082
ES (UM16 cell line; [3]): 0.259
NES (UM16 cell line; [3]): 0.760
ES (UM16 cell line; [4]): 0.335
NES (UM16 cell line; [4]): 1.042
ES (UM16 cell line; [5]): 0.523
NES (UM16 cell line; [5]): 1.465
ES (UM16 cell line; [6]): 0.493
NES (UM16 cell line; [6]): 1.407
ES (UM16 cell line; [7]): 0.636
NES (UM16 cell line; [7]): 1.813
ES (UM16 cell line; [8]): 0.401
NES (UM16 cell line; [8]): 1.235
ES (UM16 cell line; [9]): 0.381
NES (UM16 cell line; [9]): 1.239
ES (UM16 cell line; [10]): −0.349
NES (UM16 cell line; [10]): −1.559
ES (UM16 cell line; [11]): 0.449
NES (UM16 cell line; [11]): 1.312
NES (UM16 cell line; HALLMARK_ESTROGEN_RESPONSE_EARLY, FDR q-val 0.813): 0.929
ES (UM16 cell line; [12]): −0.313
NES (UM16 cell line; [12]): −1.421
ES (UM16 cell line; [13]): 0.399
NES (UM16 cell line; [13]): 1.281
ES (UM16 cell line; [14]): 0.376
NES (UM16 cell line; [14]): 1.150
ES (UM16 cell line; [15]): 0.595
NES (UM16 cell line; [15]): 1.851
ES (UM16 cell line; [16]): 0.384
NES (UM16 cell line; [16]): 1.176
ES (UM16 cell line; [17]): 0.348
NES (UM16 cell line; [17]): 1.170
ES (UM16 cell line; [18]): −0.424
NES (UM16 cell line; [18]): −1.975
ES (UM16 cell line; [19]): −0.329
NES (UM16 cell line; [19]): −1.215
ES (UM16 cell line; [20]): −0.285
NES (UM16 cell line; [20]): −1.077
ES (UM16 cell line; [21]): −0.214
NES (UM16 cell line; [21]): −0.938
ES (UM16 cell line; [22]): −0.323
NES (UM16 cell line; [22]): −1.338
ES (UM16 cell line; [23]): 0.347
NES (UM16 cell line; [23]): 1.037
ES (UM16 cell line; [24]): −0.207
NES (UM16 cell line; [24]): −0.842
ES (UM16 cell line; [25]): −0.229
NES (UM16 cell line; [25]): −0.803
ES (UM16 cell line; [26]): −0.296
NES (UM16 cell line; [26]): −0.944
ES (UM16 cell line; [27]): 0.448
NES (UM16 cell line; [27]): 1.335
ES (UM16 cell line; [28]): −0.372
NES (UM16 cell line; [28]): −1.517
ES (UM16 cell line; [29]): 0.433
NES (UM16 cell line; [29]): 1.256
ES (UM16 cell line; [30]): 0.393
NES (UM16 cell line; [30]): 1.244
ES (UM16 cell line; [31]): 0.390
NES (UM16 cell line; [31]): 1.046
NES (UM16 cell line; KEGG_ANTIGEN_PROCESSING_AND_PRESENTATION, FDR q-val 0.792): −0.917
ES (UM16 cell line; [32]): 0.543
NES (UM16 cell line; [32]): 1.389
NES (UM16 cell line; KEGG_BASAL_TRANSCRIPTION_FACTORS, FDR q-val 0.687): −1.121
ES (UM16 cell line; [33]): 0.504
NES (UM16 cell line; [33]): 1.432
ES (UM16 cell line; [34]): 0.469
NES (UM16 cell line; [34]): 1.177
NES (UM16 cell line; KEGG_CELL_CYCLE, FDR q-val 0.828): −0.995
NES (UM16 cell line; KEGG_CITRATE_CYCLE_TCA_CYCLE, FDR q-val 0.422): −1.416
ES (UM16 cell line; [35]): 0.469
NES (UM16 cell line; [35]): 1.166
NES (UM16 cell line; KEGG_DNA_REPLICATION, FDR q-val 0.844): −0.919
NES (UM16 cell line; KEGG_ERBB_SIGNALING_PATHWAY, FDR q-val 0.821): 1.410
ES (UM16 cell line; [36]): 0.593
NES (UM16 cell line; [36]): 1.623
ES (UM16 cell line; [37]): 0.386
NES (UM16 cell line; [37]): 1.041
ES (UM16 cell line; [38]): 0.572
NES (UM16 cell line; [38]): 1.376
ES (UM16 cell line; [39]): 0.394
NES (UM16 cell line; [39]): 1.086
ES (UM16 cell line; [40]): 0.520
NES (UM16 cell line; [40]): 1.277
ES (UM16 cell line; [41]): 0.352
NES (UM16 cell line; [41]): 1.077
ES (UM16 cell line; [42]): 0.381
NES (UM16 cell line; [42]): 1.007
ES (UM16 cell line; [43]): 0.534
NES (UM16 cell line; [43]): 1.369
ES (UM16 cell line; [44]): 0.415
NES (UM16 cell line; [44]): 1.092
ES (UM16 cell line; [45]): 0.469
NES (UM16 cell line; [45]): 1.271
NES (UM16 cell line; KEGG_N_GLYCAN_BIOSYNTHESIS, FDR q-val 0.658): −1.160
NES (UM16 cell line; KEGG_PARKINSONS_DISEASE, FDR q-val 0.702): −1.180
ES (UM16 cell line; [46]): 0.324
NES (UM16 cell line; [46]): 1.074
ES (UM16 cell line; [47]): 0.459
NES (UM16 cell line; [47]): 1.302
ES (UM16 cell line; [48]): 0.424
NES (UM16 cell line; [48]): 1.079
NES (UM16 cell line; KEGG_PROTEASOME, FDR q-val 0.605): −1.425
NES (UM16 cell line; KEGG_PROTEIN_EXPORT, FDR q-val 0.625): −1.116
ES (UM16 cell line; [49]): 0.331
NES (UM16 cell line; [49]): 1.023
NES (UM16 cell line; KEGG_RIBOSOME, FDR q-val 0.003): −2.132
NES (UM16 cell line; KEGG_RNA_DEGRADATION, FDR q-val 0.672): −1.228
NES (UM16 cell line; KEGG_SPLICEOSOME, FDR q-val 0.541): −1.319
NES (UM16 cell line; KEGG_VIBRIO_CHOLERAE_INFECTION, FDR q-val 0.754): −1.044
ES (UM16 cell line; [50]): 0.497
NES (UM16 cell line; [50]): 1.292
